{"source": "paper PMC8438204", "about": "“Unraveling the Thermodynamics of Ultra-tight Binding of Intrinsically Disordered Proteins” (Frontiers in Molecular Biosciences, 2021)", "key": {"HigB2 toxin [1]": {"target": "T1, HigB2 toxin (Vibrio cholerae serotype O1, UniProt Q9KMA6)", "T1 sequence (Q9KMA6 1-110)": "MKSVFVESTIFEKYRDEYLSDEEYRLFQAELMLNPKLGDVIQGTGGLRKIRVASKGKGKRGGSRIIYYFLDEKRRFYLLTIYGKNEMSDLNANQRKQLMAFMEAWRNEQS", "experiment": "Competition ITC (global fit of direct and competition titrations with nanobody-HigB2 complex)", "format": "binding", "set-up": "made in house", "conditions": "for ΔG (association): competition ITC (Nb6/Nb10), VP-ITC, 4 µM HigB2; for ΔG (association) / ΔH (association) / −TΔS (association): 20 mM sodium phosphate pH 7.5, 150 mM NaCl, three replicates"}, "CcdB2": {"system": "CcdB2", "conditions": "ref Drobnak et al., 2013, cited from earlier work", "experimental": "Supplement DataSheet1.docx, table 1: Table S1. Thermodynamic parameters and structural properties of the complexes. All parameters are reported at T = 25°C. | column: Thermodynamic parameters || Nonetheless, a handful of examples of IDP binders with ultra-high affinity have been characterized to date. […] Complexes are ordered according to the degree of energy optimization as estimated by the ΔH bind/ASAint values. For the HigA2_3-23-HigB2 complex the degree of energy optimization is similar to one observed for the pairs of globular high affinity binders (Supplementary Table S1, Figure 3A). […] The high affinit ..."}, "[2]": {"system": "E9-Im9 (colicin DNase - immunity protein)", "conditions": "ref Keeble et al., 2006, cited from earlier work", "experimental": "Supplement DataSheet1.docx, table 1: Table S1. Thermodynamic parameters and structural properties of the complexes. All parameters are reported at T = 25°C. | column: Thermodynamic parameters"}, "HigB2 toxin [3]": {"target": "T1, HigB2 toxin", "conditions": "full-length HigA2; temperature-dependent ITC; ref Hadži et al., 2017a; cited from earlier work"}, "[4]": {"conditions": "25°C, competition ITC, listed as Full-length HigA2"}}, "note": "Read-outs that look alike come from different tables or passages of the source. Marks after values point to notes of the source that are not given here.", "data": [{"compound": "CC(C)C[C@H](NC(=O)[C@H](C)NC(=O)[C@H](CO)NC(=O)[C@H](CO)NC(=O)[C@H](CC(C)C)NC(=O)[C@H](CCC(=O)O)NC(=O)[C@H](C)NC(=O)[C@H](Cc1ccccc1)NC(=O)[C@H](CC(C)C)NC(=O)[C@H](CC(=O)O)NC(=O)[C@H](CCCNC(=N)N)NC(=O)[C@@H](N)CC(N)=O)C(=O)N[C@H](C(=O)N[C@@H](CCC(=O)O)C(=O)N[C@@H](C)C(=O)N[C@@H](CCCCN)C(=O)N[C@@H](CCC(N)=O)C(=O)N[C@@H](Cc1c[nH]cn1)C(=O)N[C@@H](CO)C(=O)N[C@@H](CCC(=O)O)C(=O)NCC(=O)N[C@@H](Cc1c[nH]c2ccccc12)C(=O)O)C(C)C", "note": "[HigA2_3-23]", "values": [{"measurement": "Kd", "setting": "HigB2 toxin [1]", "value": 3, "unit": "pM"}]}, {"compound": "CcdA37-72 (RRLRAERWKAENQEGMAEVARFIEMNGSFADENRDW; UniProt P62552 37-72, looked up, fragment)", "values": [{"measurement": "-TΔS (binding)", "setting": "CcdB2; 25°C, binding contribution", "value": -0.5, "unit": "kcal/mol"}, {"measurement": "ΔG (binding)", "setting": "CcdB2; 25°C, binding contribution", "value": -19.4, "unit": "kcal/mol"}, {"measurement": "ΔH (binding)", "setting": "CcdB2; 25°C, binding contribution", "value": -18.9, "unit": "kcal/mol"}, {"measurement": "-TΔS (folding)", "setting": "CcdB2; 25°C, folding contribution", "value": 20.4, "unit": "kcal/mol"}, {"measurement": "ΔG (folding)", "setting": "CcdB2; 25°C, folding contribution", "value": 3.8, "unit": "kcal/mol"}, {"measurement": "ΔH (folding)", "setting": "CcdB2; 25°C, folding contribution", "value": -16.6, "unit": "kcal/mol"}, {"measurement": "-TΔS (association)", "setting": "CcdB2; 25°C", "value": "19.9 ± 0.3", "unit": "kcal/mol"}, {"measurement": "ΔG (association)", "setting": "CcdB2; 25°C", "value": "-15.6 ± 0.1", "unit": "kcal/mol"}, {"measurement": "ΔH (association)", "setting": "CcdB2; 25°C", "value": "-35.5 ± 0.2", "unit": "kcal/mol"}, {"measurement": "ΔCp (association)", "setting": "CcdB2", "value": "-0.63 ± 0.02", "unit": "kcal mol^-1 K^-1"}]}, {"compound": "E9-Im9", "values": [{"measurement": "-TΔS", "setting": "[2]; 25°C", "value": "-8.1 ± 0.5", "unit": "kcal/mol"}, {"measurement": "ΔG", "setting": "[2]; 25°C", "value": "-18.6 ± 0.1", "unit": "kcal/mol"}, {"measurement": "ΔCp", "setting": "[2]", "value": -0.45, "unit": "kcal mol^-1 K^-1"}]}, {"compound": "HigA2", "values": [{"measurement": "ΔG (association)", "setting": "HigB2 toxin [1]; 25°C", "value": -14.7, "unit": "kcal/mol"}, {"measurement": "ΔG (association)", "setting": "HigB2 toxin [1]; 25°C, listed as Full-length HigA2", "value": "-14.7 ± 0.9", "unit": "kcal/mol"}, {"measurement": "ΔH (association)", "setting": "HigB2 toxin [1]; 25°C, competition ITC", "value": -31.5, "unit": "kcal/mol"}, {"measurement": "−TΔS (association)", "setting": "HigB2 toxin [1]; 25°C, competition ITC", "value": 16.8, "unit": "kcal/mol"}, {"measurement": "ΔH (association)", "setting": "HigB2 toxin [1]; [4]", "value": "-31.5 ± 1.0", "unit": "kcal/mol"}, {"measurement": "−TΔS (association)", "setting": "HigB2 toxin [1]; [4]", "value": "16.8 ± 1.9", "unit": "kcal/mol"}, {"measurement": "Kd", "setting": "HigB2 toxin [1]; 25°C, competition ITC, value given in abstract, introduction, discussion and Figure 4 under the name HigA2, read-out: KD stated for HigA2-HigB2", "value": 3, "unit": "pM"}, {"measurement": "ΔCp (association)", "setting": "HigB2 toxin [3]", "value": "−0.95^a kcal mol^−1 K^-1"}]}]}
